Measured values from ChEMBL document CHEMBL4422615, “Novel non-xanthine antagonist of the A2B adenosine receptor: From HTS hit to lead structure” (Eur J Med Chem, 2019).
Active and inactive are the calls of the source. The calls are words filed in the database; no cut-off is given here.

Tests used:
Mus musculus [1] = experiment: Antifibrotic activity in FITC-induced C57BL/6J mouse pulmonary fibrosis model assessed as reduction in osteopontin level in lung at 100 to 500 mg/kg, bid administered via gavage pretreated for 45 mins before FITC addition until 72 hrs after FITC application by ELISA; assay type: functional, organism-based
Adenosine receptor A2a [2] = target: Adenosine receptor A2a (Rattus norvegicus, UniProt P30543); experiment: Antagonist activity at recombinant rat A2A adenosine receptor expressed in CHO cells after 3 to 4 hrs by luciferase reporter gene assay; assay type: cell-based
[3] = Clearance in dog plasma at 0.3 mg/kg, iv administered as bolus dose by HPLC-MS/MS analysis; assay type: ADME, organism-based, Canis lupus familiaris
[4] = Fraction unbound in dog plasma by equilibrium dialysis method; assay type: ADME, cell-free, Canis lupus familiaris
[5] = Dose normalized AUC in mouse at 0.3 mg/kg, iv administered as bolus dose by HPLC-MS/MS analysis; assay type: ADME, organism-based; settings: in vivo
[6] = Half life in mouse at 0.3 mg/kg, iv administered as bolus dose by HPLC-MS/MS analysis; assay type: ADME, organism-based; settings: in vivo
[7] = target: T1, Nuclear receptor subfamily 1 group I member 2 (Homo sapiens, UniProt O75469); experiment: Activation of PXR in human HepG2 cells assessed as induction of CYP3A4 expression by luciferase reporter gene assay; assay type: ADME, cell-based
T1 sequence (O75469 whole entry): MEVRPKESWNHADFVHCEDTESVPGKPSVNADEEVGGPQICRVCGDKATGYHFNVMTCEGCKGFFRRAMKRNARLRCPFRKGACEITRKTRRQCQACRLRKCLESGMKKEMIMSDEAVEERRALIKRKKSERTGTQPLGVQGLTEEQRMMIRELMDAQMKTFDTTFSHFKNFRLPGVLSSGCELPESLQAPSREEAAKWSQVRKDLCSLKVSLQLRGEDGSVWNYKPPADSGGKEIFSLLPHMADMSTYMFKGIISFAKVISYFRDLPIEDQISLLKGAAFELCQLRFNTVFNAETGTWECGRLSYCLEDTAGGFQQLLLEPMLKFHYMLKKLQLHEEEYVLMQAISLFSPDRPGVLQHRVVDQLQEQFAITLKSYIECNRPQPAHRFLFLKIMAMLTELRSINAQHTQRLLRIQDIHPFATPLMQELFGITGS

Mus musculus [8] = experiment: Antifibrotic activity in silica-induced C57BL/6J mouse pulmonary fibrosis model assessed as reduction in TGF-beta level in lung tissue homogenate at 100 to 500 mg/kg, bid administered via gavage treated from day 1 until day 7 after silica application by ELISA; assay type: functional, organism-based
[9] = Intrinsic clearance in rat hepatocytes by MS/MS analysis; assay type: ADME, cell-based, Hepatocyte
[10] = MRT in mouse at 0.3 mg/kg, iv administered as bolus dose by HPLC-MS/MS analysis; assay type: ADME, organism-based; settings: in vivo
[11] = MRT in rat at 1 mg/kg, po for 15 mins by HPLC-MS/MS analysis; assay type: ADME, organism-based; settings: in vivo
[12] = MRT in dog at 1 mg/kg, po for 15 mins by HPLC-MS/MS analysis; assay type: ADME, organism-based, Canis lupus familiaris; settings: in vivo
[13] = Volume of distribution at steady state in mouse at 0.3 mg/kg, iv administered as bolus dose by HPLC-MS/MS analysis; assay type: ADME, organism-based; settings: in vivo, read-out: Vdss
Adenosine receptor A2a [14] = target: Adenosine receptor A2a (Homo sapiens, UniProt P29274); experiment: Antagonist activity at recombinant human A2A adenosine receptor expressed in CHO cells after 3 to 4 hrs by luciferase reporter gene assay; assay type: cell-based
Adenosine receptor A2b [15] = target: T2, Adenosine receptor A2b (Homo sapiens, UniProt P29275); experiment: Antagonist activity at recombinant human A2B adenosine receptor expressed in CHO cells after 3 to 4 hrs by luciferase reporter gene assay; assay type: cell-based
T2 sequence (P29275 whole entry): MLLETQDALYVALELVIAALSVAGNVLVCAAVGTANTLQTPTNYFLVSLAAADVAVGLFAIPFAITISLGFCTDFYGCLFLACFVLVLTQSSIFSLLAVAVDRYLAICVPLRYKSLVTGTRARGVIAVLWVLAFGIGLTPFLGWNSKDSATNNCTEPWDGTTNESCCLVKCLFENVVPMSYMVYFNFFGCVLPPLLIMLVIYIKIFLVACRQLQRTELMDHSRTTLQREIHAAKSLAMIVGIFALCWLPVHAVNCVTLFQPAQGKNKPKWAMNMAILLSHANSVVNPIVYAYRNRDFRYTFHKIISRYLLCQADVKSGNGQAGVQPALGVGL

[16] = MRT in rat at 0.3 mg/kg, iv administered as infusion for 15 mins by HPLC-MS/MS analysis; assay type: ADME, organism-based; settings: in vivo
[17] = Dose normalized Cmax in mouse at 1 mg/kg, iv administered as bolus dose by HPLC-MS/MS analysis; assay type: ADME, organism-based; settings: in vivo
[18] = Dose normalized Cmax in rat at 1 mg/kg, po for 15 mins by HPLC-MS/MS analysis; assay type: ADME, organism-based; settings: in vivo, 0.25 h
[19] = Half life in mouse at 1 mg/kg, iv administered as bolus dose by HPLC-MS/MS analysis; assay type: ADME, organism-based; settings: in vivo
[20] = Blood clearance in rat by measuring Intrinsic clearance in rat hepatocytes by MS/MS analysis; assay type: ADME, cell-based
Cytochrome P450 2C9 = Cytochrome P450 2C9 (Homo sapiens, UniProt P11712); experiment: Inhibition of CYP2C9 in human liver microsomes using diclofenac as substrate after 15 mins in presence of NADPH by LC-MS/MS analysis; assay type: ADME
[21] = Dose normalized Cmax in dog at 1 mg/kg, po for 15 mins by HPLC-MS/MS analysis; assay type: ADME, organism-based, Canis lupus familiaris; settings: in vivo, 0.25 h
[22] = Dose normalized AUC in mouse at 1 mg/kg, iv administered as bolus dose by HPLC-MS/MS analysis; assay type: ADME, organism-based; settings: in vivo
Mus musculus [23] = experiment: Antifibrotic activity in FITC-induced C57BL/6J mouse pulmonary fibrosis model assessed as reduction in total number of cells in BALF at 100 to 500 mg/kg, bid administered via gavage pretreated for 45 mins before FITC addition until 72 hrs after FITC application; assay type: functional, organism-based
[24] = Dose normalized AUC in dog at 1 mg/kg, po for 15 mins by HPLC-MS/MS analysis; assay type: ADME, organism-based, Canis lupus familiaris; settings: in vivo, 0.25 h
Cytochrome P450 3A4 = Cytochrome P450 3A4 (Homo sapiens, UniProt P08684); experiment: Inhibition of CYP3A4 in human liver microsomes using midazolam as substrate preincubated for 30 mins followed by substrate addition measured after 10 mins in presence of NADPH by LC-MS/MS analysis; assay type: ADME
Adenosine receptor A2b [25] = target: T2, Adenosine receptor A2b; experiment: Displacement of [3H]DPCPX from human A2B adenosine receptor expressed in HEK293 cell membranes after 60 mins by radioligand displacement assay
Adenosine receptor A2a [26] = target: Adenosine receptor A2a (Mus musculus, UniProt Q60613); experiment: Antagonist activity at recombinant mouse A2A adenosine receptor expressed in CHO cells after 3 to 4 hrs by luciferase reporter gene assay; assay type: cell-based
Sequence of Adenosine receptor A2a (Mus musculus, UniProt Q60613) (Q60613 whole entry): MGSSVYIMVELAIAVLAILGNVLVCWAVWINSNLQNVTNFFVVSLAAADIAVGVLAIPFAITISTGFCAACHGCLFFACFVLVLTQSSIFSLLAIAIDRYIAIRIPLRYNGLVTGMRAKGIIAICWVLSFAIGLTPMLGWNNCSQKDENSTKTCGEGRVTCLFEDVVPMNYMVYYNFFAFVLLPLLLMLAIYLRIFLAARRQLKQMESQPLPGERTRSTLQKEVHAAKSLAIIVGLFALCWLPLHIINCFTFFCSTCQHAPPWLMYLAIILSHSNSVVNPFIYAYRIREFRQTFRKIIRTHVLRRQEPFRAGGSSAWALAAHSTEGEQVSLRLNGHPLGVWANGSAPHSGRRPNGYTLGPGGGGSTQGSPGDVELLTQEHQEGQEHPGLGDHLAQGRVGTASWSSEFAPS

Sequence of Cytochrome P450 3A4 (P08684 whole entry): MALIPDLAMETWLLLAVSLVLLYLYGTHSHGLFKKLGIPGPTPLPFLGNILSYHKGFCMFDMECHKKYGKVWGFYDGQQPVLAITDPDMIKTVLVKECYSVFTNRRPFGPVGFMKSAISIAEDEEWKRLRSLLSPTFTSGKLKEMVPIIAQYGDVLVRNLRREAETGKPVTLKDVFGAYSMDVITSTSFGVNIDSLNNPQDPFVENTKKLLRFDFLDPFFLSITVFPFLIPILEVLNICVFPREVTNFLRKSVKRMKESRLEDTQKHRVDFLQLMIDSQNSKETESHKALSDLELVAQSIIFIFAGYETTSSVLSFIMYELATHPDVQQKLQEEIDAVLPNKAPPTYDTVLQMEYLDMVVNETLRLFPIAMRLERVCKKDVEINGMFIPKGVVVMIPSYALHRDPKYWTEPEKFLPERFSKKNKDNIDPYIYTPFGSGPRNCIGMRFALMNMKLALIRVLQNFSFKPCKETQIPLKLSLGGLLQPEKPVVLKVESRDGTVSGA
Sequence of Adenosine receptor A2a (Rattus norvegicus, UniProt P30543) (P30543 whole entry): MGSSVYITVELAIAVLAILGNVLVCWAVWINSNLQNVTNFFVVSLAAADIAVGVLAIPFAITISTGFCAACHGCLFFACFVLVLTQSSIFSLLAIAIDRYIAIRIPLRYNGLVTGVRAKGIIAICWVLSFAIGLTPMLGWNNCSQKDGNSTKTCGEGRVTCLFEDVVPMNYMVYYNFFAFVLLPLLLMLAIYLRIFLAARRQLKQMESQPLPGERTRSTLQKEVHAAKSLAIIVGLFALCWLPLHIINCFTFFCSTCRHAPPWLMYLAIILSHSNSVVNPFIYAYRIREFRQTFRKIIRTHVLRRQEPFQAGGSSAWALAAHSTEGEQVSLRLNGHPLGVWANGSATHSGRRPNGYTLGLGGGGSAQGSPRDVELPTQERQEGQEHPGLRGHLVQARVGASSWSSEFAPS
Sequence of Cytochrome P450 2C9 (P11712 whole entry): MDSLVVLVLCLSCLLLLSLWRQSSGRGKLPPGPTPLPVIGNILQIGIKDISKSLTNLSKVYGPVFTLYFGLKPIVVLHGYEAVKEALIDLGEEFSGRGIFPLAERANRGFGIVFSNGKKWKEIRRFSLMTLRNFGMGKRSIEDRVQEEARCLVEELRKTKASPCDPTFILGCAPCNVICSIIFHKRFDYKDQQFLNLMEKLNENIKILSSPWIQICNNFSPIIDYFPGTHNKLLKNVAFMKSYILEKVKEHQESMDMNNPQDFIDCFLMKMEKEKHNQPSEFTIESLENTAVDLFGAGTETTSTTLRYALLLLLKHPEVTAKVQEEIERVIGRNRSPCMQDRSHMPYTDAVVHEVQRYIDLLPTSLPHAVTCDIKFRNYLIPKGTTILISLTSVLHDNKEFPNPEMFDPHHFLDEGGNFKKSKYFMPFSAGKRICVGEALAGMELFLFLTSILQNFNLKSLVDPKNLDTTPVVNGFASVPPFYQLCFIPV
Sequence of Adenosine receptor A2a (Homo sapiens, UniProt P29274) (P29274 whole entry): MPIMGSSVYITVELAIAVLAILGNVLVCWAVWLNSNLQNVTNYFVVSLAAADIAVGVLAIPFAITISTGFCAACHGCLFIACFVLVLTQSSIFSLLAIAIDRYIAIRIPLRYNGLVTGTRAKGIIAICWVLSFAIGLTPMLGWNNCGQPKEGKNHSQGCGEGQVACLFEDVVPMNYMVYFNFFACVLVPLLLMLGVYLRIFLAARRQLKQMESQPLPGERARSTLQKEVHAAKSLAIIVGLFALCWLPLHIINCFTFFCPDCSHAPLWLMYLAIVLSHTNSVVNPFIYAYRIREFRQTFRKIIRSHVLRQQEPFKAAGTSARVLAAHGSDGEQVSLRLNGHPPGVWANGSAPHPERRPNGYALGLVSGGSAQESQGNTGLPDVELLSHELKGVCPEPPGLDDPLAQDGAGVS

CCn1c(=O)c2c(C)c(C(=O)N3CCC(O)CC3)sc2n(CCC(F)(F)F)c1=O
Activity (Mus musculus [1]): inactive
IC50 (Adenosine receptor A2a [2]): 750 nM
clearance [3]: 6.67 mL/min/kg
fraction unbound [4]: 0.54
AUC/dose [5]: 1.6 kg·h/L
half-life [6]: 1.2 h
MEC [7]: 21 ×10⁻⁶ mol/L
Activity (Mus musculus [8]): Active
CLhep predicted [9]: 23.3 mL/min/kg
MRT [10]: 0.65 h
MRT [11]: 2 h
MRT [12]: 4.4 h
Vd [13]: 0.4 L/kg
IC50 (Adenosine receptor A2a [14]): 820 nM
IC50 (Adenosine receptor A2b [15]): 66 nM
MRT [16]: 1.3 h
Cmax/dose [17]: 1.2 kg/L
Cmax/dose [18]: 0.33 kg/L
half-life [19]: 2.1 h
CLhep predicted [20]: 23.3 mL/min/kg
IC50 (Cytochrome P450 2C9): > 20000 nM
Cmax/dose [21]: 0.61 kg/L
AUC/dose [22]: 1 kg·h/L
Activity (Mus musculus [23]): Active
AUC/dose [24]: 2 kg·h/L
IC50 (Cytochrome P450 3A4): > 20000 nM
IC50 (Adenosine receptor A2b [25]): 59 to 66 nM
IC50 (Adenosine receptor A2a [26]): 470 nM
